{
  "source": "patent US7498321B2",
  "about": "“17β-carbothioate 17α-arylcarbonyloxyloxy androstane derivative as anti-inflammatory agents” (Glaxo Group Limited, priority 2000, dated 2009)",
  "key": {"[1]": {"experiment": "Pharmacokinetics after intra-tracheal dry powder dosing in the pig", "type": "in vivo", "conditions": "for time after dosing up to which quantifiable in plasma: anaesthetised pigs, intra-tracheal 1 mg, LLOQ 10 (Example 1) and 20 pg/mL (fluticasone propionate)", "method": "Serial blood samples were taken for up to 8 h following dosing."}, "[2]": {"system": "human hepatocytes", "experiment": "In vitro metabolism in human hepatocytes", "type": "in vitro ADME", "conditions": "for 17-β acid metabolite production: 37° C., 10 μM"}, "[3]": {"system": "rat hepatocytes", "experiment": "In vitro metabolism in rat hepatocytes", "type": "in vitro ADME"}, "[4]": {"experiment": "Pharmacokinetics after intravenous (IV) and oral dosing in rats", "type": "in vivo, male Wistar Han rats", "conditions": "rat; for plasma clearance (in words): in vivo"}, "[5]": {"experiment": "Pharmacokinetics after intravenous administration in the anaesthetised pig", "type": "in vivo", "excerpt": "The clearance of these two glucocortocoids is similar is this experimental pig model."}, "[6]": {"molecular_target": "T1, glucocorticoid receptor (GR) (Homo sapiens, UniProt P04150)", "T1 construct": "A549 cells stably transfected with a reporter gene containing the NF-κB responsive elements from the ELAM gene promoter; endogenous in cells; host or cells: A549 human lung epithelial cells (stably transfected with reporter only)", "T1 sequence (P04150 1-777)": "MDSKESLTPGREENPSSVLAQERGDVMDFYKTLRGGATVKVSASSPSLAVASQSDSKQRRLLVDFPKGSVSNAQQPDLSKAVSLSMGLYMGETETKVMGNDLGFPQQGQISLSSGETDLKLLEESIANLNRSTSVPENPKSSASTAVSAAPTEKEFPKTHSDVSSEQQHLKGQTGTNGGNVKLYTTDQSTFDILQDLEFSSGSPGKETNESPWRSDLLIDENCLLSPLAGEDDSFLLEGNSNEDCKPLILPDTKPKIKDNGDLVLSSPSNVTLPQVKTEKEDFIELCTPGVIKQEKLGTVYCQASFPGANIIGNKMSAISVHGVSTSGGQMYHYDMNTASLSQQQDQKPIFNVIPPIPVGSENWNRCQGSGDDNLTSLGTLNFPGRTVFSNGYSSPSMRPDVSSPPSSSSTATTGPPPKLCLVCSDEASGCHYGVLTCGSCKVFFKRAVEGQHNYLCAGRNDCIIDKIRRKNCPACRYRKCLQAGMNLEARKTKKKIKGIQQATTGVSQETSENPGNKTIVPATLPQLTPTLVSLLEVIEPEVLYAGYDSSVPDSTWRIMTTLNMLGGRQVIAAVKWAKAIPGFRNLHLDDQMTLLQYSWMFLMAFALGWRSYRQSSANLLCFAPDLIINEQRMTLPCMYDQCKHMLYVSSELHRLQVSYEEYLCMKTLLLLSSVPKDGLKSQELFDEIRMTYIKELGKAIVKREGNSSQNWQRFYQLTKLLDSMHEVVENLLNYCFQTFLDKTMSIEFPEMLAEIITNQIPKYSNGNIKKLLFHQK", "experiment": "Functional in vitro assay of glucocorticoid agonist activity (NF-κB/ELAM-sPAP reporter in A549 cells, TNF stimulated)", "type": "cell-based", "conditions": "in vitro functional glucocorticoid agonist assays; versus Example 1", "method": "Pharmacological activity was assessed in a functional in vitro assay of glucocorticoid agonist activity which is generally predictive of anti-inflammatory or anti-allergic activity in vivo.\nThe functional assay was based on that described by K. P. Ray et al., Biochem J. (1997), 328, 707-715. A549 cells stably transfected with a reporter gene containing the NF-κB responsive elements from the ELAM gene promoter coupled to sPAP (secreted alkaline phosphatase) were treated with test compounds at appropriate doses for 1 hour at 37° C. The cells were then stimulated with tumour necrosis factor (TNF, 10 ng/ml) for 16 hours, at which time the amount of alkaline phosphatase produced is measured by a standard colourimetric assay. Dose response curves were constructed from which EC50 values were estimated."}},
  "note": "“And” between values parts separate entries of the source, which are not always exact repeats. Equal values may be shown once.",
  "data": [
    {"smiles": "C[C@@H]1CC2C3C[C@H](F)C4=CC(=O)C=C[C@]4(C)[C@@]3(F)[C@@H](O)C[C@]2(C)[C@@]1(OC(=O)c1ccco1)C(=O)SCF", "note": "(stereo partly drawn) [Example 1, 6α, 9α-Difluoro-17α-[(2-furanylcarbonyl)oxy]-11β-hydroxy-16α-methyl-3-oxo-androsta-1,4-diene-17β-carbothioic acid S-fluoromethyl ester]", "values": [
      {"measurement": "AUC (0-inf)", "setting": "[1]; Pig 1, intra-tracheal 1 mg dry powder blend in lactose", "result": 0.254, "unit": "ng·h/mL"},
      {"measurement": "AUC (0-inf)", "setting": "[1]; Pig 2, intra-tracheal 1 mg dry powder blend in lactose", "result": 0.221, "unit": "ng·h/mL"},
      {"measurement": "time after dosing up to which quantifiable in plasma", "setting": "[1]", "result": "up to 2 hours"},
      {"measurement": "manner of metabolism (in words)", "setting": "[2]; human hepatocytes", "result": "metabolised in an identical manner to fluticasone propionate"},
      {"measurement": "17-β acid metabolite production", "setting": "[2]; subject 1, 0.2 million cells/mL", "result": 48.9, "unit": "pmol/h"},
      {"measurement": "17-β acid metabolite production", "setting": "[2]; subject 1, 0.7 million cells/mL", "result": 73.3, "unit": "pmol/h"},
      {"measurement": "17-β acid metabolite production", "setting": "[2]; subject 2, 0.2 million cells/mL", "result": 118, "unit": "pmol/h"},
      {"measurement": "17-β acid metabolite production", "setting": "[2]; subject 2, 0.7 million cells/mL", "result": 903, "unit": "pmol/h"},
      {"measurement": "17-β acid metabolite production", "setting": "[2]; subject 3, 0.7 million cells/mL", "result": 580, "unit": "pmol/h"},
      {"measurement": "manner of metabolism (in words)", "setting": "[3]", "result": "metabolised in an identical manner to fluticasone propionate"},
      {"measurement": "plasma clearance (in words)", "setting": "[4]", "result": "approaching hepatic blood flow"},
      {"measurement": "oral bioavailability", "setting": "[4]; oral 0.1 mg/kg vs IV 0.1 mg/kg, 0.1 mg/kg", "result": "< 1% and 0.9%"},
      {"measurement": "clearance compared with fluticasone propionate (in words)", "setting": "[5]; IV 0.1 mg/kg", "result": "similar"},
      {"measurement": "pharmacokinetic parameters compared with fluticasone propionate (in words)", "setting": "[5]; IV mixture of the two compounds at 0.1 mg/kg", "result": "the same"}
    ]},
    {"smiles": "CC1CC2C3CC(F)C4=CC(=O)C=CC4(C)C3(F)C(O)CC2(C)C1(OC(=O)c1ccsc1)C(=O)SCF", "note": "(stereo not drawn) [Example 4, 6α,9α-Difluoro-11β-hydroxy-16α-methyl-3-oxo-17α-[(3-thienylcarbonyl)oxy]-androsta-1,4-diene-17β-carbothioic acid S-fluoromethyl ester]", "values": [
      {"measurement": "plasma clearance (in words)", "setting": "[4]", "result": "approaching hepatic blood flow"}
    ]},
    {"smiles": "Cc1ccoc1C(=O)OC1(C(=O)SCF)C(C)CC2C3CC(F)C4=CC(=O)C=CC4(C)C3(F)C(O)CC21C", "note": "(stereo not drawn) [Example 19, 6α,9α-Difluoro-11β-hydroxy-16α-methyl-17α-[(3-methylfuran-2-carbonyl)oxy]-3-oxo-androsta-1,4-diene-17β-carbothioic acid S-fluoromethyl ester]", "values": [
      {"measurement": "plasma clearance (in words)", "setting": "[4]", "result": "approaching hepatic blood flow"}
    ]},
    {"smiles": "Cc1cc(C(=O)OC2(C(=O)SCF)C(C)CC3C4CC(F)C5=CC(=O)C=CC5(C)C4(F)C(O)CC32C)no1", "note": "(stereo not drawn) [Example 24, 6α,9α-Difluoro-11β-hydroxy-16α-methyl-17α-[(5-methylisoxazole-3-carbonyl)oxy]-3-oxo-androsta-1,4-diene-17β-carbothioic acid S-fluoromethyl ester]", "values": [
      {"measurement": "plasma clearance (in words)", "setting": "[4]", "result": "approaching hepatic blood flow"}
    ]},
    {"smiles": "Cc1cc(C(=O)OC2(C(=O)SCF)C(C)CC3C4CC(F)C5=CC(=O)C=CC5(C)C4(F)C(O)CC32C)on1", "note": "(stereo not drawn) [Example 25, 6α,9α-Difluoro-11β-hydroxy-16α-methyl-17α-[(3-methylisoxazole-5-carbonyl)oxy]-3-oxo-androsta-1,4-diene-17β-carbothioic acid S-fluoromethyl ester]", "values": [
      {"measurement": "plasma clearance (in words)", "setting": "[4]", "result": "approaching hepatic blood flow"}
    ]},
    {"smiles": "CC1CC2C3CC(F)C4=CC(=O)C=CC4(C)C3(F)C(O)CC2(C)C1(OC(=O)c1ccon1)C(=O)SCF", "note": "(stereo not drawn) [Example 28, 6α,9α-Difluoro-11β-hydroxy-17α-[(isoxazole-3-carbonyl)oxy]-16α-methyl-3-oxo-androsta-1,4-diene-17β-carbothioic acid S-fluoromethyl ester]", "values": [
      {"measurement": "plasma clearance (in words)", "setting": "[4]", "result": "approaching hepatic blood flow"}
    ]},
    {"smiles": "CCC(=O)O[C@]1(C(=O)SCF)[C@H](C)C[C@H]2[C@@H]3C[C@H](F)C4=CC(=O)C=C[C@]4(C)[C@@]3(F)[C@@H](O)C[C@@]21C", "note": "[Fluticasone propionate, 6α, 9α-Difluoro-17α-(1-oxopropoxy)-11β-hydroxy-16α-methyl-3-oxo-androsta-1,4-diene-17β-carbothioic acid S-fluoromethyl ester, reference compound]", "values": [
      {"measurement": "time after dosing up to which quantifiable in plasma", "setting": "[1]", "result": "up to 8 hours"}
    ]},
    {"smiles": "C[C@@H]1C[C@H]2[C@@H]3C[C@H](F)C4=CC(=O)C=C[C@]4(C)[C@@]3(F)[C@@H](O)C[C@]2(C)[C@@]1(OC(=O)c1ccco1)C(=O)O", "note": "[Metabolite (X)]", "values": [
      {"measurement": "fold less active than the parent compound", "setting": "[6]", "result": "> 1000", "unit": "fold"}
    ]}
  ]
}
